Activity calls are given as the source filed them. No rule for the calls is given here.
Target: Alkaline phosphatase, placental type (Homo sapiens) (UniProt P05187)
Experiment: PLAP enzyme inhibitors, biochemical, luminescence, HTS (AID 690)
Settings: purified PLAP, luminescent substrate

Alkaline phosphatase, placental type (Homo sapiens), sequence (P05187 whole entry, looked up): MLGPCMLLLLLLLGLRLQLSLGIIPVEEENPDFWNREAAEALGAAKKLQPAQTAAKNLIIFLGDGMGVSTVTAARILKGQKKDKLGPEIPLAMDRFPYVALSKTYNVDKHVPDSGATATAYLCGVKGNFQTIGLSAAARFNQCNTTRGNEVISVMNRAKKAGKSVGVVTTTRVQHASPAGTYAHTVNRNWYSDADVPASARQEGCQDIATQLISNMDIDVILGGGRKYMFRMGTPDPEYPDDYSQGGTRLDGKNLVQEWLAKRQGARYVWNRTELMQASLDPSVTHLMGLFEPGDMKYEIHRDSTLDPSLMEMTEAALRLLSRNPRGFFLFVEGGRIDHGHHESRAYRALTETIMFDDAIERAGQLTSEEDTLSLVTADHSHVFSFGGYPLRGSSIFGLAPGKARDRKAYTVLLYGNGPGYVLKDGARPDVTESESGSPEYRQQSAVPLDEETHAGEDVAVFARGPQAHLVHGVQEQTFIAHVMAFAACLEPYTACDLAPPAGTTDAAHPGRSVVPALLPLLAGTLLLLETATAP

| SMILES | IC50 |
| --- | --- |
| N#Cc1c(SCC(=O)OCc2ccccc2)nsc1SCC(=O)OCc1ccccc1 | 62.9 µM |
| Clc1ccc(/C=C/c2nc3ccccc3[nH]2)c(Cl)c1 | 6.37 µM |
| O=C(CCCn1c(SCC(=O)c2ccc(O)c(O)c2)nc2ccccc2c1=O)NCC1CCCO1 (stereo not given) | 3.45 µM |
| O/N=C/c1cc(Cl)ccc1OCc1cccc2ccccc12 | 42.3 µM |
| O=C(NCc1cccnc1)NC1(C(F)(F)F)Oc2ccc(Cl)cc2O1 (stereo not given) | 12.4 µM |
| CCc1ccc(NSc2ccccc2[N+](=O)[O-])cc1 | 29.2 µM |
| O=P(O)(O)c1ccccc1OCc1ccccc1 | 8.43 µM |
| COc1ccc(-c2nnc(-c3ccc(Br)o3)o2)cc1OC | 10.3 µM |
| CCOc1cc(/C=C(/C#N)C(=O)Nc2ccc(O)cc2)cc(Br)c1O | 48.5 µM |
| CCCCOC(=O)C(C)Nc1n[nH]c(=S)[nH]c1=O (stereo not given) | 43.3 µM |
| O=c1sc2ccccc2n1COc1ccc(Cl)cc1 | 99.3 µM |
| CCN1/C(=C/c2ccc3ccccc3[n+]2CC)C=Cc2ccccc21 | 10.6 µM |
| CN1/C(=C\C=C2\N=C(c3ccc(F)cc3)OC2=O)C(C)(C)c2ccccc21 | 35.7 µM |
| CC(C)C1N=C2c3ccccc3N=C(SCC(=O)c3ccc(O)c(O)c3)N2C1=O (stereo not given) | 3.11 µM |
| O=C1NC(=S)N/C1=C/c1cc([N+](=O)[O-])ccc1O | inactive |
| COc1ccc(-n2nnnc2SCC(=O)c2ccc(O)c(O)c2)cc1 | 1.13 µM |
| Cc1cc2nc(C3CCN(Cc4nnnn4Cc4cccs4)CC3)[nH]c2cc1C | 7.67 µM |
| Clc1ccc(CSCCc2ccncc2)cc1 | 5.76 µM |
| CSc1cccc(NC(=O)/C=C/c2ccccc2)c1 | 75.8 µM |
| CC(=O)Oc1cc2oc(=O)cc(C)c2cc1OC(C)=O | 6.24 µM |

| SMILES | IC50 |
| --- | --- |
| COC(=O)c1ccc2c(c1)C(C)(C)C(/C=C/c1ccc(O)cc1)=[N+]2C | 10.8 µM |
| COCc1[nH]nc2c1C(c1cc(OC)c(O)c(OC)c1)C(C#N)=C(N)O2 (stereo not given) | 23 µM |
| CN(C)c1ccc(/C=C/C=C2/SC(=S)N(c3ccccc3)C2=O)cc1 | 9.81 µM |
| c1ccc(CSCCc2ccncc2)cc1 | 2.01 µM |
| CCOC(=O)c1c(-n2c(C)cc(C=C3C(=O)NC(=S)NC3=O)c2C)sc2c1CCCC2 | 63.9 µM |
| N#C/C(=C\c1ccc(O)c(O)c1)S(=O)(=O)c1ccccc1 | 4.1 µM |
| C=CCN1C(=O)NC2(O)C(=O)c3ccccc3C12O (stereo not given) | 15.8 µM |
| CN1C(=O)/C(=C2/C=Cc3ccccc3N2CCCS(=O)(=O)O)SC1=S | 15.2 µM |
| CCC1CCc2c(c3ccccc3[nH]c2=O)O1 (stereo not given) | 14.1 µM |
| CC(C)N=c1scc(-c2ccco2)n1/N=C/c1ccc(O)c(O)c1 | 4.97 µM |
| CCCc1[nH]nc2c1C(c1ccc(O)c(OC)c1)C(C#N)=C(N)O2 (stereo not given) | 11.8 µM |
| CCN1/C(=C/c2ccc3cccc(C)c3[n+]2CC)Sc2ccccc21 | 11.9 µM |
| O=C(CSc1n[nH]c(-c2ccccc2)n1)c1ccc(O)c(O)c1 | 11.1 µM |
| O=c1oc2cc(Cl)ccc2n1CSc1nc2ccccc2s1 | 85.6 µM |
| Cc1cc([N+](=O)[O-])ccc1NCc1ccc2ccccc2c1 | 75 µM |
| CCOc1ccccc1OCc1nn2c(-c3ccc(C)cc3)nnc2s1 | 55.8 µM |
| O=C1C2C3C=CC(C3)C2C(=O)N1c1n[nH]c(-c2ccccc2)n1 (stereo not given) | 7.63 µM |
| CN(C)c1ccc(/C=C/C(=O)c2cccc(Br)c2)cc1 | 35.5 µM |
| C/C(=N\Nc1ccc([N+](=O)[O-])cc1)c1cccc(N)c1 | 51.9 µM |
| CN(C)c1ccc(/C=C/c2cc[n+](C)cc2)cc1 | 17.3 µM |
